Earlier results on one molecule are cited in patent US20240197774A1, “Synthesis of Antimicrobial PVP-coated Bismuth Nanoparticles” (Board of Regents, The University of Texas System, priority 2021, published 2024).

This data set deals with humans. The conditions noted are these: intake for years, considered non-toxic.

Regarding `[Bi]` [Bismuth], the Intake is 5 to 20 g/day/kg.
